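Tested at 5 concentrations; 48 h exposure; 96-well plates; endpoints linearly interpolated, else capped at highest concentration. At the GI50, growth is halved.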 Active and inactive are the calls of the source. Rule as the data show it: active = GI50 up to about 1.1 µM and inactive = higher.
Assays:
Assay in all cases: NCI anticancer screen, dose series, 48 h
MDA-MB-231 = tested on: MDA-MB-231
SR = tested on: SR
SK-MEL-5 = tested on: SK-MEL-5
DU-145 = tested on: DU-145
M14 = tested on: M14
NCI/ADR-RES = tested on: NCI/ADR-RES
SW-620 = tested on: SW-620
A498 = tested on: A498
NCI-H522 = tested on: NCI-H522
IGROV-1 = tested on: IGROV-1
COLO 205 = tested on: COLO 205
TK-10 = tested on: TK-10
HOP-62 = tested on: HOP-62
SF-539 = tested on: SF-539
Malme-3M = tested on: Malme-3M
UO-31 = tested on: UO-31
A549 = tested on: A549
OVCAR-3 = tested on: OVCAR-3
SNB-19 = tested on: SNB-19
OVCAR-5 = tested on: OVCAR-5

Compound	GI50 (MDA-MB-231)	GI50 (SR)	GI50 (SK-MEL-5)	GI50 (DU-145)	GI50 (M14)	GI50 (NCI/ADR-RES)	GI50 (SW-620)	GI50 (A498)	GI50 (NCI-H522)	GI50 (IGROV-1)	GI50 (COLO 205)	GI50 (TK-10)	GI50 (HOP-62)	GI50 (SF-539)	GI50 (Malme-3M)	GI50 (UO-31)	GI50 (A549)	GI50 (OVCAR-3)	GI50 (SNB-19)	GI50 (OVCAR-5)
[N-]=[N+]=Nc1ccccc1C(=O)N1C(=O)c2ccccc2C(=O)N(C(=O)c2ccccc2N=[N+]=[N-])c2ccccc21	52.8 µM (inactive)	38.8 µM (inactive)	47.2 µM (inactive)	> 100 µM (inactive)	> 100 µM (inactive)	40.8 µM (inactive)	32.1 µM (inactive)	42.2 µM (inactive)	30.5 µM (inactive)	46.9 µM (inactive)	34.1 µM (inactive)	67.5 µM (inactive)	21.6 µM (inactive)	43.7 µM (inactive)	> 100 µM (inactive)	> 100 µM (inactive)	37.1 µM (inactive)	37.7 µM (inactive)	60.4 µM (inactive)	> 100 µM (inactive)
C=C(Cl)[C@](Cl)(CBr)CC[C@@H](Br)C(C)(C)Cl [HALOMON]	1.16 µM (inactive)	7.21 µM (inactive)	12.3 µM (inactive)	1.1 µM (active)	15.7 µM (inactive)	1.69 µM (inactive)	2.07 µM (inactive)	1.97 µM (inactive)	15.5 µM (inactive)	6.67 µM (inactive)	1.84 µM (inactive)	1.81 µM (inactive)	0.23 µM (active)	0.562 µM (active)	11.5 µM (inactive)	0.959 µM (active)	2.12 µM (inactive)	0.791 µM (active)	1.46 µM (inactive)	1.56 µM (inactive)
COC(=O)c1c(C(=O)OC)c2ccccn2c1-c1cc(C)cc2c1C(=O)C=CC2=O	10.4 µM (inactive)	3.93 µM (inactive)	12.4 µM (inactive)	14 µM (inactive)	9.48 µM (inactive)	15.6 µM (inactive)	2.89 µM (inactive)	12.8 µM (inactive)	> 10 µM (inactive)	12.8 µM (inactive)	5.22 µM (inactive)	14.1 µM (inactive)	15.7 µM (inactive)	11 µM (inactive)	10.2 µM (inactive)	2.38 µM (inactive)	16.3 µM (inactive)	11 µM (inactive)	13.7 µM (inactive)	12.1 µM (inactive)
O=C(O)CCN1CCN(CCC(=O)O)CCN(CCC(=O)O)CC1	> 100 µM (inactive)	44.6 µM (inactive)	74 µM (inactive)	> 100 µM (inactive)	> 100 µM (inactive)	> 100 µM (inactive)	44.4 µM (inactive)	> 100 µM (inactive)	> 100 µM (inactive)	> 100 µM (inactive)	92.7 µM (inactive)	> 100 µM (inactive)	> 100 µM (inactive)	> 100 µM (inactive)	> 100 µM (inactive)	> 100 µM (inactive)	69.3 µM (inactive)	> 100 µM (inactive)	> 100 µM (inactive)	> 100 µM (inactive)
CCOP(=O)(OCC)C(c1ccc(F)cc1)N(C(=O)NC(F)(F)F)c1cccc(C(F)(F)F)c1 (stereo not given)	> 100 µM (inactive)	75.3 µM (inactive)	> 100 µM (inactive)	> 100 µM (inactive)	> 100 µM (inactive)	82.8 µM (inactive)	> 100 µM (inactive)	> 100 µM (inactive)	67.8 µM (inactive)	65.8 µM (inactive)	> 100 µM (inactive)	> 100 µM (inactive)	> 100 µM (inactive)	> 100 µM (inactive)	> 100 µM (inactive)	94.8 µM (inactive)	82.2 µM (inactive)	> 100 µM (inactive)	77.3 µM (inactive)	> 100 µM (inactive)
